Experimental findings from patent US10941152B2, “Pyrazole compounds as modulators of FSHR and uses thereof” (TOCOPHERX, INC., priority 2014, dated 2021) are described below.

The target in one experiment is T1, FSHR (Homo sapiens, UniProt P23945).
T1 construct: expressed in transfected cells; host or cells: CHO (Cho-FSHR-LUC-1-1-43)
T1 sequence (P23945 18-695): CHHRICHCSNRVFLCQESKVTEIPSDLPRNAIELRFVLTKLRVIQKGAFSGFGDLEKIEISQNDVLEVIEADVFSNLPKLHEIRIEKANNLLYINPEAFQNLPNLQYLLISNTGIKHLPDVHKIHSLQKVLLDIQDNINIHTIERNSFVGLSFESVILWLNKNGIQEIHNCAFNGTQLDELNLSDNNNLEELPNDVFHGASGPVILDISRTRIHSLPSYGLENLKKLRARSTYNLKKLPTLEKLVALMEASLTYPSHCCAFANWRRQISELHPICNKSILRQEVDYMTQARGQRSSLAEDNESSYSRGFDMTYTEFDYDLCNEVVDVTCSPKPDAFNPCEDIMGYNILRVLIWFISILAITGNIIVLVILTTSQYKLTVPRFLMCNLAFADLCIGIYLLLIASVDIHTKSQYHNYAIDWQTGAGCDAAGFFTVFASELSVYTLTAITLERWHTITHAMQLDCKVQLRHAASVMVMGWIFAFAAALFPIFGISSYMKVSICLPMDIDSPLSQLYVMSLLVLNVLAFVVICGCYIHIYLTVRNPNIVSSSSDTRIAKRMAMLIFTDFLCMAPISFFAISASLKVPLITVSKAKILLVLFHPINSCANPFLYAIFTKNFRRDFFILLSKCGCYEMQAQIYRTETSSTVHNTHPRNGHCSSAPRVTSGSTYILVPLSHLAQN
The experiment in a line: EC50 of cyclic AMP production in CHO FSHR cells + EC20 FSH (Assay A). The format is cell-based. The following applies: cyclic AMP production in CHO FSHR cells + EC20 FSH (0.265 pM), HTRF. In short, it runs like this: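 cAMP was detected by HTRF as the 665/620 nm ratio. The CHO-FSHR cells had first been exposed for 1 h at 37° C to test compound together with 0.265 pM FSH (EC20) and 200 μM IBMX. Responses are given as percent of the FSH standard maximum.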
(In general: In TR-FRET formats the signal depends on donor and acceptor labels being close together.)

For experiment [1], the target named is T2, follicle-stimulating hormone (FSH) receptor (Rattus norvegicus, UniProt P20395).
T2 construct: endogenous in cells; host or cells: rat granulosa cells
T2 sequence (P20395 18-692): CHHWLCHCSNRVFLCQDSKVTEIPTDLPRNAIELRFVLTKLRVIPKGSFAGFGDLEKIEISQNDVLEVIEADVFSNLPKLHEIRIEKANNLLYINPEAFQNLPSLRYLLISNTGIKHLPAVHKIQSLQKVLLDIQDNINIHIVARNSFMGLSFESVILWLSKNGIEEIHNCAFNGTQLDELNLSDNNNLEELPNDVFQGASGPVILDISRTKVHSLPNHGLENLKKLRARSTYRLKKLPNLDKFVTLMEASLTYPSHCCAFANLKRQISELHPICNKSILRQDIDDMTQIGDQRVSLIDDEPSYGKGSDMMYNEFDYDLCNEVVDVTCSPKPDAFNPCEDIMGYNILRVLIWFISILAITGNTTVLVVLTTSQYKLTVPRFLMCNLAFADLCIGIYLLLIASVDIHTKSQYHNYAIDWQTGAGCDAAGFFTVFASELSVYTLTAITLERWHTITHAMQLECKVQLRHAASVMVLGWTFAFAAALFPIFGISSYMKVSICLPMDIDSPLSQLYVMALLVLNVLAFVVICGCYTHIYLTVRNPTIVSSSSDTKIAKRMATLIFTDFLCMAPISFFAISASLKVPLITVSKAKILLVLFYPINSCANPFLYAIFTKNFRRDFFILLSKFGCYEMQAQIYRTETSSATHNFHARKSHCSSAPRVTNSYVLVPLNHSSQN
The experiment in a line: Rat granulosa EC50 FSH (Assay B). The format is cell-based. The protocol:
Example 25. Rat granulosa EC50 FSH (Assay B)
The assay was performed pursuant to the teaching of Yanofsky et al. (2006) Allosteric activation of the follicle-stimulating hormone (FSH) receptor by selective, nonpeptide agonists (JBC 281(19): 13226-13233, which is incorporated by reference in the disclosure of the invention).

A value given as a limit tells only on which side of the number the result lay.

With `COc1cc2c(cc1-c1nn(C)cc1C#N)-c1c(c(C(=O)N3CCOCC3(C)C)nn1-c1cc(F)cc(F)c1)CO2` [Compound 150], the EC50 (as a rule, the midpoint of the concentration-response curve) at FSHR was less than 10 nM; in experiment [1], 10 to 100 nM.
For `COc1cc2c(cc1-c1nccnc1C#N)-c1c(c(C(=O)N(C)C(C)(C)C)nn1-c1cc(Cl)cc(Cl)c1)CO2` [Compound 112, N-tert-butyl-8-(3-cyanopyrazin-2-yl)-1-(3,5-dichlorophenyl)-7-methoxy-N-methyl-1,4-dihydrochromeno[4,3-c]pyrazole-3-carboxamide], in that order: 10 to 100 nM and 101 to 500 nM.
Take `COc1cc2c(cc1-c1cccc(O)c1)-c1c(c(C(=O)N(C)C(C)(C)C)nn1-c1cc(Cl)cc(Cl)c1)CO2` [Compound 22, N-tert-butyl-1-(3,5-dichlorophenyl)-8-(3-hydroxyphenyl)-7-methoxy-N-methyl-1,4-dihydrochromeno[4,3-c]pyrazole-3-carboxamide]: the EC50 at FSHR was less than 10 nM; in experiment [1] it was 10 to 100 nM.
Taken in the same sequence, the figures for `COc1cc(Cl)cc(-n2nc(C(=O)N3CCOCC3(C)C)c3c2-c2cc(-c4cncc(C(N)=O)c4)c(OC)cc2OC3)c1` [Compound 157] were less than 10 nM and less than 10 nM.
Taken in the same sequence, the figures for `COc1cc2c(cc1-c1cnn(CC(=O)N(C)C)c1)-c1c(c(C(=O)N(C)C(C)(C)C)nn1-c1cc(Cl)cc(Cl)c1)CO2` [Compound 90, N-tert-butyl-1-(3,5-dichlorophenyl)-8-(1-(2-(dimethylamino)-2-oxoethyl)-1H-pyrazol-4-yl)-7-methoxy-N-methyl-1,4-dihydrochromeno[4,3-c]pyrazole-3-carboxamide] were less than 10 nM and 101 to 500 nM.
Taken in the same sequence, the figures for `COc1cc2c(cc1-c1ccn(C)n1)-c1c(c(C(=O)N(C)C(C)(C)C)nn1-c1cc(Cl)cc(Cl)c1)CO2` [Compound 4, N-tert-butyl-1-(3,5-dichlorophenyl)-7-methoxy-N-methyl-8-(1-methyl-1H-pyrazol-3-yl)-1,4-dihydrochromeno[4,3-c]pyrazole-3-carboxamide] were 10 to 100 nM and greater than 500 nM.
In the case of `COc1cc2c(cc1-c1cncc(C#N)c1)-c1c(c(C(=O)N3CCC(O)CC3(C)C)nn1-c1cc(F)cc(F)c1)CO2` (stereo not shown) [Compound 50, 5-(1-(3,5-difluorophenyl)-3-(4-hydroxy-2,2-dimethylpiperidine-1-carbonyl)-7-methoxy-1,4-dihydrochromeno[4,3-c]pyrazol-8-yl)nicotinonitrile], the EC50 at FSHR is less than 10 nM; in experiment [1], 101 to 500 nM.
As to `COc1cc2c(cc1-c1cnccc1C(N)=O)-c1c(c(C(=O)N(C)C(C)(C)C)nn1-c1cc(Cl)cc(Cl)c1)CO2` [Compound 153], the EC50 was less than 10 nM on FSHR and 10 to 100 nM in experiment [1].
For `COc1cc2c(cc1-c1cnn(CC(N)=O)c1)-c1c(c(C(=O)N(C)C(C)(C)C)nn1-c1cc(Cl)cc(Cl)c1)CO2` [Compound 2, 8-(1-(2-amino-2-oxoethyl)-1H-pyrazol-4-yl)-N-tert-butyl-1-(3,5-dichlorophenyl)-7-methoxy-N-methyl-1,4-dihydrochromeno[4,3-c]pyrazole-3-carboxamide], in that order: less than 10 nM and 10 to 100 nM.
Taken in the same sequence, the figures for `COc1cc(OC)cc(-n2nc(C(=O)N3CCOCC3(C)C)c3c2-c2cc(-c4cncc(C(N)=O)c4)c(OC)cc2OC3)c1` [Compound 159] were less than 10 nM and 10 to 100 nM.
Taken in the same sequence, the figures for `COc1cc2c(cc1-c1cc(C#N)c[n+]([O-])c1)-c1c(c(C(=O)N3CCOCC3(C)C)nn1-c1cc(Cl)cc(Cl)c1)CO2` [Compound 177] were less than 10 nM and 10 to 100 nM.
For the compound `COc1cc(F)cc(-n2nc(C(=O)N(C)C(C)(C)C)c3c2-c2cc(-c4ccn(C)n4)c(OC)cc2OC3)c1` [Compound 52, N-tert-butyl-1-(3-fluoro-5-methoxyphenyl)-7-methoxy-N-methyl-8-(1-methyl-1H-pyrazol-3-yl)-1,4-dihydrochromeno[4,3-c]pyrazole-3-carboxamide], the EC50 is 10 to 100 nM at FSHR and 101 to 500 nM in experiment [1].
With `COc1cc(OC)cc(-n2nc(C(=O)N3CCOCC3(C)C)c3c2-c2cc(-c4cncc(C#N)c4)c(OC)cc2OC3)c1` [Compound 44, 5-(1-(3,5-dimethoxyphenyl)-3-(3,3-dimethylmorpholine-4-carbonyl)-7-methoxy-1,4-dihydrochromeno[4,3-c]pyrazol-8-yl)nicotinonitrile], the results for the EC50 (on FSHR; in experiment [1]) were less than 10 nM and 10 to 100 nM, respectively.
For `COc1cc2c(cc1-c1cncc(C(N)=O)c1)-c1c(c(C(=O)N(C)C(C)(C)C(N)=O)nn1-c1cc(F)cc(F)c1)CO2` [Compound 104, N-(1-amino-2-methyl-1-oxopropan-2-yl)-8-(5-carbamoylpyridin-3-yl)-1-(3,5-difluorophenyl)-7-methoxy-N-methyl-1,4-dihydrochromeno[4,3-c]pyrazole-3-carboxamide], in that order: 10 to 100 nM and greater than 500 nM.
On to `COc1cc2c(cc1-c1nn(C)cc1C#N)-c1c(c(C(=O)N(C)C(C)(C)C)nn1-c1cc(F)cc(F)c1)CO2` [Compound 149], for which the EC50 on FSHR is less than 10 nM; in experiment [1], 10 to 100 nM.
Taken in the same sequence, the figures for `COc1cc2c(cc1-c1cc(C(N)=O)ccn1)-c1c(c(C(=O)N(C)C(C)(C)C)nn1-c1cc(Cl)cc(Cl)c1)CO2` [Compound 113, N-tert-butyl-8-(4-carbamoylpyridin-2-yl)-1-(3,5-dichlorophenyl)-7-methoxy-N-methyl-1,4-dihydrochromeno[4,3-c]pyrazole-3-carboxamide] were less than 10 nM and 10 to 100 nM.
On to `COc1cc2c(cc1-c1ccccc1F)-c1c(c(C(=O)N(C)C(C)(C)C)nn1-c1ccsc1)CO2` [Compound 63, N-tert-butyl-8-(2-fluorophenyl)-7-methoxy-N-methyl-1-(thiophen-3-yl)-1,4-dihydrochromeno[4,3-c]pyrazole-3-carboxamide], for which the EC50 on FSHR is 10 to 100 nM; in experiment [1], 101 to 500 nM.
For `COc1cc2c(cc1-c1cncc(C(=O)O)c1)-c1c(c(C(=O)N(C)C(C)(C)C#N)nn1-c1cc(F)cc(F)c1)CO2` [Compound 107, 5-(3-((2-cyanopropan-2-yl)(methyl)carbamoyl)-1-(3,5-difluorophenyl)-7-methoxy-1,4-dihydrochromeno[4,3-c]pyrazole-8-yl)nicotinic acid], in that order: less than 10 nM and 101 to 500 nM.
Taken in the same sequence, the figures for `CNC(=O)Cn1cc(-c2cc3c(cc2OC)OCc2c(C(=O)N(C)C(C)(C)C)nn(-c4cc(Cl)cc(Cl)c4)c2-3)cn1` [Compound 91, N-tert-butyl-1-(3,5-dichlorophenyl)-7-methoxy-N-methyl-8-(1-(2-(methylamino)-2-oxoethyl)-1H-pyrazol-4-yl)-1,4-dihydrochromeno[4,3-c]pyrazole-3-carboxamide] were less than 10 nM and 10 to 100 nM.
For `COc1cc(-c2cc3c(cc2OC)OCc2c(C(=O)N(C)C(C)(C)C)nn(-c4cc(Cl)cc(Cl)c4)c2-3)cc(C(N)=O)n1` [Compound 117, N-tert-butyl-8-(2-carbamoyl-6-methoxypyridin-4-yl)-1-(3,5-dichlorophenyl)-7-methoxy-N-methyl-1,4-dihydrochromeno[4,3-c]pyrazole-3-carboxamide], the EC50 on FSHR is less than 10 nM; in experiment [1], 10 to 100 nM.
